Results reported in PubChem BioAssay AID248 (DTP/NCI, 2004).
Several values for one entry are separate records, joined by “and”; a condition that tells them apart may be missing. Equal values may be shown once. Inconclusive results and toxic doses are left out. Rule as the data show it: active = T/C of 150% or more; inactive = T/C below 125%.

System: L1210 leukemia ip in BDF1 mice, survival T/C
Assay: NCI In Vivo Anticancer Drug Screen. Data for tumor model L1210 Leukemia (intraperitoneal) in B6D2F1 (BDF1) mice
Details: endpoint: mean survival time, higher = longer survival
Method in brief: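 Value reflects the ratio of survival in compound-treated mice to survival in vehicle-treated controls, with both groups carrying the same transplanted tumor.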

[1] = dose: 100.0 mg/kg/injection, schedule: Q01DX001 (ip), vehicle: saline
[2] = dose: 100.0 mg/kg/injection, schedule: Q01DX009 (ip), vehicle: saline
[3] = dose: 100.0 mg/kg/injection, schedule: Q04DX003 (ip), vehicle: saline
[4] = dose: 200.0 mg/kg/injection, schedule: Q01DX001 (ip), vehicle: saline
[5] = dose: 200.0 mg/kg/injection, schedule: Q01DX009 (ip), vehicle: saline
[6] = dose: 200.0 mg/kg/injection, schedule: Q04DX003 (ip), vehicle: saline
[7] = dose: 100.0 mg/kg/injection, schedule: Q01DX009 (ip), vehicle: Klucel (hydroxypropylcellulose) (HPC)
[8] = dose: 200.0 mg/kg/injection, schedule: Q01DX009 (ip), vehicle: Klucel (hydroxypropylcellulose) (HPC)
[9] = dose: 100.0 mg/kg/injection, schedule: Q01DX009 (ip), vehicle: saline with Tween-80
[10] = dose: 100.0 mg/kg/injection, schedule: Q04DX003 (ip), vehicle: saline with Tween-80
[11] = dose: 200.0 mg/kg/injection, schedule: Q01DX009 (ip), vehicle: saline with Tween-80
[12] = dose: 200.0 mg/kg/injection, schedule: Q04DX003 (ip), vehicle: saline with Tween-80
[13] = dose: 400.0 mg/kg/injection, schedule: Q04DX003 (ip), vehicle: saline with Tween-80
[14] = dose: 100.0 mg/kg/injection, schedule: Q04DX003 (ip), vehicle: Klucel (hydroxypropylcellulose) (HPC)
[15] = dose: 200.0 mg/kg/injection, schedule: Q04DX003 (ip), vehicle: Klucel (hydroxypropylcellulose) (HPC)
[16] = dose: 400.0 mg/kg/injection, schedule: Q01DX009 (ip), vehicle: Klucel (hydroxypropylcellulose) (HPC)
[17] = dose: 400.0 mg/kg/injection, schedule: Q04DX003 (ip), vehicle: Klucel (hydroxypropylcellulose) (HPC)
[18] = dose: 400.0 mg/kg/injection, schedule: Q01DX001 (ip), vehicle: saline

Measured: T/C

CC(=O)[C@H]1CC[C@H]2[C@@H]3C[C@H](C)C4=CC(=O)CC[C@]4(C)[C@H]3[C@@H](O)C[C@]12C
inactive: dose: 50.0 mg/kg/injection, schedule: Q01DX009 (ip), vehicle: saline 100 % of control | dose: 50.0 mg/kg/injection, schedule: Q01DX Z (sc), vehicle: steriod suspending solution 106 % of control | dose: 50.0 mg/kg/injection, schedule: Q04DX003 (ip), vehicle: saline 95 % of control | [1] 93 % of control | [2] 94 % of control | dose: 100.0 mg/kg/injection, schedule: Q01DX Z (sc), vehicle: steriod suspending solution 103 % of control | [3] 103 % of control | [4] 104 % of control | [5] 102 % of control | dose: 200.0 mg/kg/injection, schedule: Q01DX Z (sc), vehicle: steriod suspending solution 103 % of control | [6] 102 % of control | dose: 400.0 mg/kg/injection, schedule: Q01DX Z (sc), vehicle: steriod suspending solution 98 % of control

Cc1cc(=O)oc2c(OS(C)(=O)=O)c(OS(C)(=O)=O)ccc12
inactive: dose: 6.25 mg/kg/injection, schedule: Q01DX009 (ip), vehicle: Klucel (hydroxypropylcellulose) (HPC) 100 % of control | dose: 12.5 mg/kg/injection, schedule: Q01DX009 (ip), vehicle: Klucel (hydroxypropylcellulose) (HPC) 100 % of control | dose: 25.0 mg/kg/injection, schedule: Q01DX009 (ip), vehicle: Klucel (hydroxypropylcellulose) (HPC) 96 % of control and 100 % of control | dose: 50.0 mg/kg/injection, schedule: Q01DX009 (ip), vehicle: Klucel (hydroxypropylcellulose) (HPC) 94 % of control and 88 % of control | [7] 97 % of control | [8] 105 % of control

COc1cc(CC#N)c(OC)cc1CC#N
inactive: [9] 94 % of control | [10] 89 % of control | [11] 89 % of control | [12] 89 % of control | dose: 400.0 mg/kg/injection, schedule: Q01DX009 (ip), vehicle: saline with Tween-80 99 % of control | [13] 88 % of control

CCCCCCCCC(O)CCCCC (centres undefined)
inactive: [7] 100 % of control | [14] 106 % of control | [8] 98 % of control | [15] 103 % of control | [16] 94 % of control | [17] 109 % of control

C/C=C/C=C/COC(=O)C(C)(C)C
inactive: dose: 50.0 mg/kg/injection, schedule: Q04DX002 (ip), vehicle: saline 103 % of control | dose: 100.0 mg/kg/injection, schedule: Q04DX002 (ip), vehicle: saline 95 % of control and 96 % of control | dose: 200.0 mg/kg/injection, schedule: Q04DX002 (ip), vehicle: saline 98 % of control | dose: 400.0 mg/kg/injection, schedule: Q04DX002 (ip), vehicle: saline 96 % of control and 107 % of control

FC(F)(F)c1ccc(Cl)c(NC2=NCCS2)c1
inactive: dose: 100.0 mg/kg/injection, schedule: Q01DX001 (ip), vehicle: Klucel (hydroxypropylcellulose) (HPC) 114 % of control | [14] 97 % of control | dose: 200.0 mg/kg/injection, schedule: Q01DX001 (ip), vehicle: Klucel (hydroxypropylcellulose) (HPC) 103 % of control | [15] 98 % of control | dose: 400.0 mg/kg/injection, schedule: Q01DX001 (ip), vehicle: Klucel (hydroxypropylcellulose) (HPC) 97 % of control | [17] 88 % of control

c1ccc(C2OCC3OC(c4ccccc4)OC(C4SCCS4)C3O2)cc1 (centres undefined)
inactive: dose: 100.0 mg/kg/injection, schedule: Q01DX001 (ip), vehicle: gum acacia 92 % of control | dose: 200.0 mg/kg/injection, schedule: Q01DX001 (ip), vehicle: gum acacia 93 % of control | dose: 400.0 mg/kg/injection, schedule: Q01DX001 (ip), vehicle: gum acacia 93 % of control

CC1(C)N=C(N)N=C(N)N1c1ccc(OCCCc2ccccc2)c(N)c1
inactive: dose: 25.0 mg/kg/injection, schedule: Q04DX003 (ip), vehicle: saline with Tween-80 100 % of control | dose: 50.0 mg/kg/injection, schedule: Q04DX003 (ip), vehicle: saline with Tween-80 96 % of control

OC1C2CCN(CC2)C1C(c1ccccc1)c1ccc(F)cc1 (centres undefined)
inactive: dose: 100.0 mg/kg/injection, schedule: Q04DX002 (ip), vehicle: Klucel (hydroxypropylcellulose) (HPC) 91 % of control | dose: 200.0 mg/kg/injection, schedule: Q04DX002 (ip), vehicle: Klucel (hydroxypropylcellulose) (HPC) 87 % of control

O=C(Nc1cc(Cl)ccc1Cl)c1cccc(F)c1
inactive: [7] 92 % of control | [8] 98 % of control | [16] 98 % of control

COc1ccc(C(CC(=O)c2ccc3c(c2)OCO3)C(=O)O)cc1OC (centres undefined)
inactive: [7] 93 % of control | [14] 100 % of control | [8] 98 % of control | [15] 96 % of control | [16] 93 % of control | [17] 93 % of control

O=S(=O)(CCCCCl)Cc1ccccc1
inactive: [1] 101 % of control | [2] 110 % of control | [3] 104 % of control | [4] 96 % of control | [5] 94 % of control | [6] 104 % of control | [18] 93 % of control | dose: 400.0 mg/kg/injection, schedule: Q01DX009 (ip), vehicle: saline 103 % of control | dose: 400.0 mg/kg/injection, schedule: Q04DX003 (ip), vehicle: saline 93 % of control

N#Cc1cccc(OCCOc2cccc3ccccc23)c1
inactive: dose: 100.0 mg/kg/injection, schedule: Q01DX001 (ip), vehicle: saline with Tween-80 96 % of control | dose: 200.0 mg/kg/injection, schedule: Q01DX001 (ip), vehicle: saline with Tween-80 94 % of control | dose: 400.0 mg/kg/injection, schedule: Q01DX001 (ip), vehicle: saline with Tween-80 87 % of control

CC1(C)CC(C)(c2ccc(-n3c(-c4ccccc4)nc4ccccc4c3=O)cc2)c2ccccc2S1 (centres undefined)
inactive: [1] 91 % of control | [4] 91 % of control | [18] 87 % of control

CCOC(=O)C(C(=O)c1ccccc1)c1cc(NS(=O)(=O)c2ccccc2)ccc1O (centres undefined)
inactive: dose: 12.5 mg/kg/injection, schedule: Q01DX009 (ip), vehicle: saline with Tween-80 90 % of control | dose: 25.0 mg/kg/injection, schedule: Q01DX009 (ip), vehicle: saline with Tween-80 95 % of control | dose: 50.0 mg/kg/injection, schedule: Q01DX009 (ip), vehicle: saline with Tween-80 94 % of control and 97 % of control | [9] 86 % of control | [10] 91 % of control | [11] 86 % of control

Nc1ncnc2c1ncn2C1C=CC(CO)O1 (centres undefined)
inactive: [1] 102 % of control | [4] 100 % of control | [18] 102 % of control

CCOC(=O)NCC1(c2ccccc2)CCNCC1
inactive: dose: 20.0 mg/kg/injection, schedule: Q04DX003 (ip), vehicle: Klucel (hydroxypropylcellulose) (HPC) 102 % of control | dose: 40.0 mg/kg/injection, schedule: Q04DX003 (ip), vehicle: Klucel (hydroxypropylcellulose) (HPC) 102 % of control | dose: 80.0 mg/kg/injection, schedule: Q04DX003 (ip), vehicle: Klucel (hydroxypropylcellulose) (HPC) 102 % of control

CCCCCCCCCCCSCCCCCCCCCCC
inactive: [10] 113 % of control | [12] 94 % of control | [13] 91 % of control

O=C(NC(=O)c1cccc(Br)c1)Nc1ccccc1
inactive: dose: 264.0 mg/kg/injection, schedule: Q01DX001 (ip), vehicle: carboxymethylcellulose (CMC) 92 % of control | dose: 400.0 mg/kg/injection, schedule: Q01DX001 (ip), vehicle: carboxymethylcellulose (CMC) 96 % of control | dose: 600.0 mg/kg/injection, schedule: Q01DX001 (ip), vehicle: carboxymethylcellulose (CMC) 90 % of control

CC1(C)NC(=O)N(Cc2ccccc2)C1=O
inactive: [7] 94 % of control | [10] 98 % of control | [8] 97 % of control | [12] 110 % of control | [16] 100 % of control | [13] 105 % of control

O=CNC(Cc1cccc(N(CCCl)CCCl)c1)C(=O)O (centres undefined)
inactive: dose: 8.0 mg/kg/injection, schedule: Q01DX Z (ip), vehicle: methylcellulose (MC) 106 % of control | dose: 12.0 mg/kg/injection, schedule: Q01DX Z (ip), vehicle: methylcellulose (MC) 95 % of control | dose: 18.0 mg/kg/injection, schedule: Q01DX Z (ip), vehicle: methylcellulose (MC) 103 % of control | dose: 27.0 mg/kg/injection, schedule: Q01DX Z (ip), vehicle: methylcellulose (MC) 97 % of control
